The fold induction is the signal under treatment as a multiple of the control signal.

Here are results for 6 compounds from patent US6924415B2 (Board of Regents, The University of Texas System, priority 2001, dated 2005).

The test system of assay [1] is ERK5. Kind of assay: ERK5 immunoprecipitation kinase assay (GST-MEF2C substrate) after treatment of cardiomyocytes. Type of assay: cell-based. Conditions: at 60 min; 0.3M sorbitol or 200 μM H2O2; serum-deprived neonatal rat cardiomyocytes.
Experimental: Top, ERK5 was immunoprecipitated from 200 μg of cellular lysate with an antibody specific for the carboxyl-terminal 20 amino acids. Kinase assays were performed with immunoprecipitated ERK5 using GST-MEF2C substrate in the presence of [γ-^32P]-ATP. GST-MEF2C phosphorylation was detected by autoradiography after SDS-PAGE. Middle, immunoblotting was performed on immunoprecipitated material using rabbit anti-ERK5 antibody. Bottom, levels of ^32P-phosphorylated GST-MEF2C were quantitated with a Phosphor Imager.
Following incubation for 30 min at 30° C., samples were separated by SDS-PAGE and transferred to a polyvinylidene difluoride (PVDF) membrane. The level of ^32P-labeled GST-fusion protein on the membrane was analyzed using a Phosphor Imager (Molecular Dynamics). The membrane was then immunoblotted with anti-ERK5 rabbit polyclonal antibody (StressGen) at a final concentration of 150 ng/ml and proteins were visualized using a chemiluminescence system (Santa Cruz).
Eighteen hours after plating, cells were changed into serum-free media and either incubated for an additional forty-eight hours prior to treatment with hypertrophic agents or infected with adenovirus at a multiplicity of infection of 100.
Following treatment, cardiomyocytes were harvested and ERK5 immunoprecipitation (IP) kinase assays were performed with a GST-MEF2C substrate.
For assay [2], the system named is ERK5. Conditions: Kamakura et al., 1999; cited from earlier work.
For a further assay, the system named is skeletal α-actin. Kind of assay: RNA dot blot, fetal gene expression in cardiomyocytes: skeletal α-actin. The following applies: Rattus norvegicus, Cardiomyocyte; Adβ-gal-infected cells treated with LIF (1000 units/ml) or PE (50 μM) 24 hours; relative to uninfected untreated cells. In kind it is cell-based. Here is the method:
FIGS. 4A-B. MEK5 signaling contributes to the regulation of cardiomyocyte fetal gene expression by PE and LIF. (FIG. 4A) Cardiomyocytes were either not infected (−) or infected with MEK5WT, MEK5KM or β-gal adenoviruses at an moi of 20 and serum-deprived. Thirty-six hours post-infection, cells were either not treated or treated with 50 μM PE (black bar) or 1000 units/ml LIF (white bar) for an additional 24 hours. RNA was prepared and used for dot blots with oligonucleotide probes specific for skeletal α-actin, ANF or BNP. Signal intensity was quantitated using a Phosphor Imager. The average fold induction±SD of three independent experiments is shown. “-fold” induction is relative to uninfected cells without PE or LIF treatment. (FIG. 4B) Cardiomyocytes were either not infected or infected with MEK5DD or β-gal adenoviruses at an moi of 20 and serum-deprived. Forty-eight hours post-infection, the cells were harvested and RNA was prepared. Transcript levels for α-skeletal actin, ANF or BNP were determined as described in FIG. 4A. […]
To determine whether elevated MEK5 could also transduce signals that regulate fetal gene expression, the inventors treated cardiomyocytes infected with AdMEK5WT, AdMEK5KM or Ad[…]-gal with LIF or PE and analyzed expression of atrial natriuretic factor (ANF), brain natriuretic peptide (BNP) and skeletal α-actin (FIG. 4A). […]

Assay [3] relates to neonatal rat cardiomyocytes. Kind of assay: Morphometric analysis of cardiomyocytes (anti-sarcomeric α-actinin staining). Conditions: for Area / Major axis / Major/Minor / Minor axis: virus moi 100, PE or LIF (1000 units/ml) where indicated, mean ± SD. The arrangement: Area / Major axis / Minor axis / Major/Minor: dose or concentration left out as unconfirmed. Type of assay: cell-based.

In the case of `OO` [H2O2], the “activation of ERK5 (phosphorylation of GST-MEF2C)” value with ERK5 [1] stood at 5 fold.
Turning to `COc1cccc(-c2cc(=O)c3ccccc3o2)c1N` [PD098059], the “inhibition of activation of ERK5” value in the assay on ERK5 [2] is recorded as “inhibit activation of ERK5”.
As for `CNC[C@H](O)c1cccc(O)c1` [PE, phenylephrine], the fold induction at 50 µM with skeletal α-actin was in the range of 4 to 5. In assay [3], this compound displayed an Area of 5745 ± 1560 μm^2, a Major axis of 110 ± 20 μm, a Major/Minor of 1.71 ± 0.37 and a Minor axis of 66 ± 12 μm.
With `N#CC(=C(/N)Sc1ccccc1N)/C(C#N)=C(\N)Sc1ccccc1N` [U0126], the “inhibition of activation of ERK5” value in the assay with ERK5 [2] was “inhibit activation of ERK5”.
In the case of `OC[C@@H](O)[C@@H](O)[C@H](O)[C@@H](O)CO` [sorbitol], the “activation of ERK5 (phosphorylation of GST-MEF2C)” value in the assay on ERK5 [1] came to 8 fold.
For the compound “LIF: IL-6 family cytokine, leukemia inhibitory factor”, in assay [3], the Area was 3586 ± 1090 μm^2, the Major axis is reported as 144 ± 36 μm, the Major/Minor is listed as 5.06 and the Minor axis was 33 ± 12 μm. Also, the “cardiomyocyte elongation (morphology)” value in assay [3] (α-actinin staining) is “induced dramatic elongation”.
